For data set [1] the following is noted: cited from earlier work; for anxiety in the elevated plus-maze and social interaction tests: blockade of amygdala NPY Y1R, low stress conditions, Kask et al., 1998b, Sajdyk, 1999.
Data set [2] relates to WistarF/Han (WF) rats. The data set is described as follows: 1h food intake with Y1R antagonist pre-treatment (Example 4). The class given is in vivo. The settings on record: i.c.v., BIBP3226 100nmol pre-treatment; isoleucyl thiazolidine 50nmol; NPY 0.8nmol; Fig. 11. The method, then:
(§1) Animals. Male WistarF/Han (WF) rats (Central Animal Laboratory, Hannover Medical School, Hannover, Germany, see http://www.mh-hannover.de/institut/tierlabor/wf.htm for details), weighing 330±31 g±SD, were housed in a sound-proof, temperature controlled (24.0±0.5°C) room under specific pathogen free conditions with a 12/12h dark/light cycle (lights on at 07.00 with illumination level of 80 Lux). Food (Altromin lab chow pellets) and tap water were available ad libitum. Under ketamine/xylasine (100/5 mg/kg, i.p.) anesthesia, the rats were fixed in a Kopf stereotaxic frame and implanted with cannulae (Plastic One, Inc., Roanoke, VA, USA) above the lateral ventricle. All research and animal care procedures were approved by the Lower Saxony district government (Hannover, Germany) and followed principles described in the European Community's Council Directive of 24 November 1986 (86/609/EEC).
(§2) Surgery and i.c.v. application. For surgery, rats were anesthetized and prepared with i.c.v. cannulae (coordinates: A:-0.7mm caudal, L:1.4mm lateral to bregma; and V3.2mm ventral to the skull surface; tooth bar +3.0 above ear bars) using standard stereotaxic procedures as described in detail elsewhere (von Hörsten et al., 1998a,b,c). After a 7-day recovery period, successful ventricle cannulation was confirmed by an angiotensin drinking response (von Hörsten et al., 1998a). Rats showing a positive drinking response (n=56) were then habituated to experimental handling by daily sham injections for seven days.
Animals were randomly divided into eight experimental groups (n=6-8/group), which completed one SI test of anxiety: (1) aCSF+aCSF+aCSF; (2) BIBP+aCSF+aCSF; (3) aCSF+isoleucyl thiazolidine+aCSF; (4) BIBP+isoleucyl thiazolidine+aCSF; (5) aCSF+aCSF+NPY; (6) BIBP+aCSF+NPY; (7) aCSF+P32/89+NPY; (8) BIBP+isoleucyl thiazolidine+NPY. Animals in each group were treated in an identical way in each phase, receiving i.c.v. injections -60mins and -55min before behavioral testing. Experiments spanned two nights with groups counterbalances on both dark cycles. The injection cannula was attached to a Hamilton microsyringe with approximately 30cm of polyethylene tubing and all compounds were infused in a total volume of 5.0µl at a rate of 5.0 µl/min using a TSE multichannel infusion pump (Bad Homburg, Germany). The time spent in active social interaction (SI-time), 1h, and 12h food-intake were measured.
Peptides and Antagonist. Rat neuropeptide Y1-36 was obtained from Polypeptide Laboratories (Wolfenbüttel, Germany). The NPY Y1 receptor antagonist BIBP3226 was purchased from American Peptide Company, Sunnyvale, CA, USA (Cat#:60-1-22B). […]
(§3) Statistical analysis. Data obtained from the measures SI time and 1h food intake were analyzed by one-way (factor: "treatment") ANOVA. […]

The subject of data set [3] is WistarF/Han (WF) rats. The data set is described as follows: Social interaction (SI) test with Y1R antagonist pre-treatment (Example 4). The class given is in vivo. To be noted: Fig. 10. As for the experimental part: as §1
Surgery and i.c.v. application. […]
Animals were randomly divided into eight experimental groups (n=6-8/group), which completed one SI test of anxiety: (1) aCSF+aCSF+aCSF; (2) BIBP+aCSF+aCSF; (3) aCSF+isoleucyl thiazolidine+aCSF; (4) BIBP+isoleucyl thiazolidine+aCSF; (5) aCSF+aCSF+NPY; (6) BIBP+aCSF+NPY; (7) aCSF+P32/89+NPY; (8) BIBP+isoleucyl thiazolidine+NPY. […] The time spent in active social interaction (SI-time), 1h, and 12h food-intake were measured. […]
Social interaction (SI) test. […] Behavior was monitored using a video camera placed above the field inside the testing/isolation box. The SI behavior of both rats was recorded on-line from a monitor placed outside on top of the box. The following parameters were scored by an observer (HPN) unaware of the substrain of rats: duration of time spent in sniffing, following, crawling under and over other rats, but not passive body contact (resting, sleeping). […]
as §3

A further data set has as its system rats. To be noted: administered into the dorsal periaqueductal gray matter; Kask et al., 1998d; cited from earlier work.
Data set [4] deals with olfactory bulbectomized rats. To be noted: 7-day i.c.v. administration; Song et al., 1996; cited from earlier work.
The subject of data set [5] is WistarF/Han (WF) rats. The data set is described as follows: 1h and 12h food intake after combined i.c.v. treatment (Example 3). The data set is classed as in vivo. To be noted: single agents or combination, isoleucyl thiazolidine 5pmol-500nmol, NPY 50pmol-1.6nmol, Fig. 8. The method, then: as §1, with “330-370g,” for “330±31 g±SD,”
as §2, with “(n=59)” for “(n=56)”
Animals were randomly divided into two sets of four experimental groups (n=5-6/group), which completed different consecutive SI test of anxiety. […] The time spent in active social interaction (SI-time), 1h and 12h food-intake were measured. […]
Statistical analysis. Data from repeated observations (food intake) were analyzed by two-way analyses of variance for repeated measures (ANOVA) (factors: "substrain" and "food intake" as repeated measure). Data obtained from simple measures such as DP IV activity or SI time were analyzed by one-way (factor: "substrain") ANOVA. […]

[6] abbreviates: i.c.v. injection, Kask et al. (1996).

As to `NC(=O)NCc1ccc(CNC(=O)[C@@H](CCCN=C(N)N)NC(=O)C(c2ccccc2)c2ccccc2)cc1` [BIB03304], in data set [1], the “anxiety in the elevated plus-maze and social interaction tests” value is recorded as “did not increase anxiety”.

For the compound `NC(N)=NCCC[C@@H](NC(=O)C(c1ccccc1)c1ccccc1)C(=O)NCc1ccc(O)cc1` [BIBP3226], in the data set with WistarF/Han (WF) rats [2], the “1h feeding under Y1R blockade” value is “only partly affected”. Moreover, in data set [1], the “anxiety in the elevated plus-maze and social interaction tests” value is recorded as “did not increase anxiety”. In addition, in data set [1] (setting [6]), the “effect in the elevated plus-maze test” value is recorded as “anxiogenic-like effects” and the locomotor effect entry is on record as “without any locomotor deficit”. Also, the “effect on isoleucyl thiazolidine-induced potentiation of the NPY mediated anxiolytic-like effect on SI behavior” value in the data set on WistarF/Han (WF) rats [3] (i.c.v. pre-treatment, BIBP3226 100nmol) is reported as “can block”. Besides, the “time spent in active social interaction” value in the data set with rats is on record as “decreased”.

With “NPY: Rat neuropeptide Y1-36 obtained from Polypeptide Laboratories”, the “behavioral and neurotransmitters deficits” value in data set [4] was “attenuated”. Also, the “1h feeding under Y1R blockade” value with WistarF/Han (WF) rats [2] is given as “only partly mediated by the Y1R”. For the same compound, the “anxiolytic-like effect in the SI test under Y1 receptor blockade” value in the data set on WistarF/Han (WF) rats [3] (i.c.v., BIBP3226 100nmol pre-treatment, isoleucyl thiazolidine 50nmol, NPY 0.8nmol) is on record as “antagonized”. The “amount of food eaten within 1h” value in the data set on WistarF/Han (WF) rats [5] is reported as “"u-shaped" dose-dependent feeding effect”.

The record behind these values is EP1891948A1, “Treatment of neurological and neuropsychological disorders” (Probiodrug AG, priority 2000, dated 2002).
